Data taken from US20240002326A1, “COMPOUNDS AND USE THEREOF IN METHODS OF TREATMENT” (The University of Queensland, priority 2016, published 2024).

Key:
[1] = Cytotoxicity assay (Alamar blue), HEK293; assay type: cell-based; details: human, HEK293 cells; HEK293, 24 h
Outline: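 COS-7 cells in DMEM with 10% FBS; HepG2 and HEK293 in DMEM with 1% FBS. After 24 h plating, serial compound dilutions (0.5% DMSO final) added for 24 h at 37° C. Viability from Alamar blue 5 μM, fluorescence 560/590 nm read after 2 h.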

[2] = Cytotoxicity assay (Alamar blue), COS-7; assay type: cell-based, Monkey; details: chlorocebus aethiops, COS-7 cells; COS7, 24 h; read-out: In vitro cytotoxicity CC50 ± SD COS7
Protocol: (§1) Cell toxicity was determined using Alamar blue, as previously described (McMillian et al., 2002). COS-7 cells were seeded as 7000 cells per well in black wall clear bottom 96-well plates in DMEM medium (Life Technologies Australia) with 10% FBS. HepG2 and HEK293 cell lines, from ATCC, were seeded as 5000 cells per well in black wall clear bottom 384-well cell culture plates in DMEM with 1% FBS. Cells were cultured for 24 h at 37° C., 5% CO2. A serial dilution of compounds was added, with a final DMSO concentration adjusted to 0.5% v/v. Cells were incubated for another 24 h. 1 Triton X-100 was used as negative control, and 0.5% DMSO as positive control. 5 μM Alamar blue was added to each well and fluorescence was measured (λexc=560 nm, λem=590 nm) after 2 h incubation at 37° C. Data were analysed using Prism software.

HepG2 = assay: Cytotoxicity assay (Alamar blue), HepG2; assay type: cell-based; details: HepG2, 24 h
[3] = Critical micelle concentration (CMC) assay; assay type: physicochemical; details: threshold concentration of micelle formation in 200 mM NaCl or FP buffer
Protocol: Critical micelle concentration was determined based on the incorporation of fluorescent 1,6-diphenyl-1,3,5-hexatriene (DPH) into micelles (Chattopadhyay and London, 1984). Small molecules and positive controls (neutral detergent Triton X100 and anionic detergent SDS) were cascade diluted in low binding 96-well plates from 1000 μM to 0.1 μM. Dilutions were performed in 200 mM NaCl or FP buffer. DPH was supplemented at 5 μM into black 384-well plates. Fluoresence intensity (λexc=360 nm, λem=430 nm) was measured following a 30-min incubation at room temperature, to graphically estimate CMC transition.

COS-7 cells = assay: Cytotoxicity assay (Alamar blue), COS-7; assay type: cell-based, Monkey; details: COS7, 24 h; read-out: In vitro cytotoxicity CC50 ± SD COS7
Protocol: as §1

[4] = test system: SOX binding site consensus DNA; assay: Direct DNA-binding assay (SPR), consensus DNA; details: biotinylated double-strand DNA on streptavidin chip
Protocol: (§2) Compounds were tested at a 1% v/v DMSO in HBS-EP buffer (10 mM HEPES, 150 mM NaCl, 3 mM EDTA, 0.005% v/v polysorbate 20, pH 7.4). The same buffer supplemented with 1% v/v DMSO was used as a mobile phase. DNA minor groove binder DAPI (4′,6-diamidino-2-phenylindole), DNA intercalator and minor groove binder actinomycin D, and DNA intercalator ethidium bromide were used as positive controls. Biotinylated (one tag per probe) double strand DNA probes were prepared using a standard annealing routine (5 min at 100° C., room temperature overnight and stored at −20° C.) of single strand anti-parallel DNA Probes purchased from Geneworks and were immobilized on CM5-SA streptavidin chips as per manufacturer's recommendations. […] All sample and control cycles were performed in triplicate. DMSO calibration was performed as per manufacturer's recommendations. After each injection, an extra flow system wash was performed with 50% v/v DMSO to avoid carryover. Experiments were run on a Biacore T200 (GE Healthcare, USA), with one flow cell kept as a reference.
(§3) From a molecular viewpoint, an inhibitor of SOX18-DNA binding could act either by interacting directly with the DNA, or the protein, or at the interface between protein and DNA. Binding of small molecules directly to the DNA, even though reported for other TFs (Leung et al., 2013), has the potential for unspecific DNA binding, leading to possible genotoxicity, mutagenicity, or carcinogenicity. For this reason, we developed a direct binding assays to determine whether the active compounds interact directly with DNA or protein. A surface plasmon resonance-based method was developed to analyse the binding of small molecules to biotinylated double stranded DNA immobilized on the surface of a streptavidin chip. The method measures the rate of binding (kon), dissociation (koff) and binding constant (KD), and was used to measure the binding to two different DNA sequences: SOX binding site consensus DNA, and scrambled DNA. Intercalating agents ethidium bromide and Actinomycin D, and the minor groove-binding agent 4′,6-diamino-2-phenylindole (DAPI) were used as positive controls for unselective DNA binding.

scrambled DNA = assay: Direct DNA-binding assay (SPR), scrambled DNA; details: biotinylated double-strand DNA on streptavidin chip
Protocol: as §2, §3

mouse SOX18-HMG (109aa) = mouse SOX18-HMG (109aa) (Mus musculus (Mouse), UniProt P43680); assay: Direct protein binding assay (thermal aggregation, static light scattering); details: 500 μM for Sm4 and Sm14, 1.5 mM for Sm5
Sequence of mouse SOX18-HMG (109aa) (P43680 69-177): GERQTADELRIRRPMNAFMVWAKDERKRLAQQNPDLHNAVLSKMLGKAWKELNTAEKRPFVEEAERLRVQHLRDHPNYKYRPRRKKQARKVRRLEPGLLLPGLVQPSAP

SMILES: COc1cc(C)cc(/C=C/c2ccc3ccccc3c2)c1C(=O)O [Sm34, (E)-2-methoxy-4-methyl-6-(2-(naphthalen-2-yl)vinyl)benzoic acid]
- CC50 at 24 h [1]: > 100 µM

SMILES: O=C(O)c1ccccc1Nc1cccc(C(F)(F)F)c1 [Flufenamic acid, reference compound]
- CC50 at 24 h [2]: 65 ± 2.7 µM

SMILES: Oc1cc(CCc2ccccc2)cc(O)c1O [Sm40, 5-phenethylbenzene-1,2,3-triol]
- CC50 at 24 h [1]: > 100 µM

SMILES: CCN(CC)C(=O)c1c(O)cc(O)cc1CCc1ccc2ccccc2c1 [Sm26, N,N,diethyl-2,4-hydroxy-6-(2-(naphthalen-2-yl)ethyl)benzamide]
- CC50 (HepG2): 16.8 µM

SMILES: O=C(O)c1c(O)cccc1COCCc1ccccc1 [Sm5]
- CMC [3]: >1000 µM
- CC50 (COS-7 cells): > 200 µM
- binding to consensus DNA (SPR) [4]: do not bind
- binding to scrambled DNA (SPR) (scrambled DNA): do not bind
- increase in Tagg (mouse SOX18-HMG (109aa)): more than 3 °C
